Test results from PubChem BioAssay (NCI).
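All cell lines were grown in 96-well plates and treated with compound for 48 hours. Here, GI50 denotes the concentration required for 50% inhibition of growth. TGI: total growth inhibition.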

These compounds were tested on SK-OV-3 ovarian (assay: growth of human tumour cells (NCI), 48 h).
Compound `CN(C)C(=S)/N=c1\ss/c(=N\C(=S)N(C)C)n1-c1ccc2c(c1)OCO2` has a TGI greater than 100 µM. `COc1ccc(C(=O)/C=C/c2cccnc2Nc2cc(OC)c(OC)c(OC)c2)cc1` gave a GI50 of 4.12 µM and a TGI of 16.4 µM. Compound `Nc1c(-c2ccc(Br)cc2)[n+]([O-])c2ccccc2[n+]1[O-]` has a TGI greater than 100 µM. Work on `CCCCNC(=O)NS(=O)(=O)c1ccc(N2N=C(c3ccc(C)cc3C)CC2c2ccc(N(C)C)cc2)cc1` (stereo not drawn) yielded a GI50 of 8.16 µM and a TGI greater than 100 µM. `C#CC[C@]12CC(=O)CC[C@H]1CC(=O)C2` gave a TGI greater than 100 µM. `N#CCCN(c1ccc(/C=C2\N=C(c3ccc(Cl)cc3)OC2=O)cc1)S(=O)(=O)c1ccccc1` was tested, and the TGI was greater than 100 µM. `Cc1cc(NS(=O)(=O)c2ccc(NC(=O)c3cccc4c(=O)c5ccccc5[nH]c34)cc2)no1` gave a TGI of 72.7 µM. For `COc1ccc(C2CC(=O)c3c(OC)cc(OC)cc3O2)cc1` (stereo not drawn), the GI50 was greater than 100 µM and the TGI was greater than 100 µM. For `O=C(/C=C/c1ccccc1Cl)c1ccccc1Cl`, the TGI was greater than 100 µM. `COc1ccc(-c2nc(-c3nc4ccc(C)cc4[nH]3)c3ccccn23)cc1` was tested, and the GI50 was 6.95 µM and the TGI was greater than 100 µM. For `C[C@]12CC[C@@H]3c4ccc(O)cc4C[C@@H](CCCCCCCCCS(=O)CCCC(F)(F)C(F)(F)F)[C@H]3[C@@H]1CC[C@@H]2O` (stereo partly drawn), the GI50 was greater than 100 µM and the TGI was greater than 100 µM. `COc1cc(-c2c(C#N)c(N)n3c(nc4ccccc43)c2C#N)cc(Br)c1OC` gave a GI50 greater than 100 µM and a TGI greater than 100 µM. `N#CCCN(CCC#N)c1ccc(/C=C2\N=C(CN3C(=O)c4ccccc4C3=O)OC2=O)cc1` gave a TGI greater than 100 µM. Compound `Cn1cc(C2=C(c3cn(CCCN=C(N)N)c4ccccc34)C(=O)NC2=O)c2ccccc21` has a GI50 greater than 25 µM and a TGI greater than 25 µM. For `N#C/C(C(=S)Nc1ccccc1)=C1/NN=C2c3ccccc3C(=O)NN21`, the GI50 was 19.6 µM and the TGI was 59.8 µM. `CC#CC(=O)Nc1ccccc1CC(c1c[nH]c2ccccc12)c1c[nH]c2ccccc12` showed a TGI of 59.3 µM. Compound `NCCCNCCSSCCCCS(=O)O` has a TGI greater than 100 µM. `C[C@]12CC[C@@H]3c4ccc(Oc5nc(N6CC6)nc(N6CC6)n5)cc4CC[C@H]3[C@@H]1CCC2=O` was tested, and the GI50 was 3.31 µM and the TGI was 13.9 µM. For `COc1cc(C(=O)O[C@H](C(N)=O)[C@]2(C)CO2)c2ccccc2c1`, the GI50 was 14.3 µM and the TGI was 28 µM. `Cc1cccc(C(C)(C)C)c1NC(=O)CCc1n[nH]c(=S)o1` showed a TGI greater than 100 µM. In the case of `O=S(O)CCCCSSCCCCSSCCCCS(=O)O`, the TGI was greater than 100 µM. Work on `CC(=O)SCCC1c2[nH]c3ccccc3c2CCN1O` (stereo not drawn) yielded a TGI greater than 100 µM. For `CCOC(=O)NC(=O)c1cn(CCCOC(=O)NCCCCCCNC(=O)OCCCn2c(=O)c(C(=O)NC(=O)OCC)cn(C)c2=O)c(=O)n(C)c1=O`, the TGI was greater than 100 µM. `COc1ccc(S(=O)(=O)N(Cc2ccc3c(n2)C=CC(C)(C)O3)C2CCC2)cc1OC` showed a GI50 of less than 0.01 µM and a TGI of less than 0.01 µM. With `COc1ccc2cc(C(=O)/C=C/c3cccc(OC)c3OC)ccc2c1` the GI50 was 23.7 µM and the TGI was 45.9 µM. With `CCCCn1c(-c2ccc(C(=O)O/N=C(\N)c3ccc(OC)cc3)cc2)nc(-c2ccccc2)c1-c1ccccc1` the GI50 was 3.76 µM and the TGI was greater than 100 µM. `CC(C)=CC(=O)N1CCN(C(=O)C=C(C)C)CC1` gave a TGI greater than 100 µM. Compound `CCCCC/C=C/C/C=C/CCCCCCCC1=NC(C)(C)CN1C(C)C` has a GI50 of 3.07 µM and a TGI of 12.6 µM. `C[C@]12CC[C@@H]3c4ccc(O)cc4CC[C@H]3[C@@H]1CC[C@@H]2NS(=O)(=O)c1ccc(C(F)(F)F)cc1` showed a GI50 of 2.53 µM and a TGI of 6.21 µM. In the case of `O=C(CCCSc1nc(-c2ccc(Cl)cc2)cc(-c2ccc(Cl)cc2)n1)NO`, the GI50 was 2.02 µM and the TGI was 11.8 µM. Work on `O=C(CC(=O)N1N=C(c2ccccc2)C(N=Nc2ccc(Cl)cc2)C1=O)Nc1ccccc1Cl` (stereo not drawn) yielded a TGI of 40.4 µM.

What follows are compounds tested on SF-295 CNS (assay: growth of human tumour cells (NCI), 48 h).
`Cc1c2c(nn1-c1ccc(S(=O)(=O)/N=C3\SCC(=O)N3C(=O)c3ccccc3)cc1)-c1ccccc1CC2` gave a GI50 of 21.6 µM and a TGI of 58.2 µM. `CN(C)C(=S)/N=c1\ss/c(=N\C(=S)N(C)C)n1-c1ccc2c(c1)OCO2` was tested, and the TGI was greater than 100 µM. Work on `COc1ccc(C(=O)/C=C/c2cccnc2Nc2cc(OC)c(OC)c(OC)c2)cc1` yielded a GI50 of 1.71 µM and a TGI of 18.9 µM. Work on `Nc1c(-c2ccc(Br)cc2)[n+]([O-])c2ccccc2[n+]1[O-]` yielded a TGI greater than 100 µM.
